# Assay results as given in patent publication US20080072494A1, “Micronutrient elicitor for treating nematodes in field crops” (priority 2006, published 2008).
# Tests used:
# [1] = test system: β-1,3-glucanase; experiment: β-1,3-glucanase elicitation in germinating mung beans after seed treatment (laminarin substrate); format: in vivo; details: mung bean seeds, 0.5, 0.05 and 0.005 mg/seed; higher doses gave lower activities
# Experimental: Enzyme activity measurements relate to the level of a given enzyme protein in the plant tissue. As an example of enhanced enzyme activity, β-1,3-glucanase was measured. The enzyme, β-1,3-glucanase, was assayed using laminarin (a soluble β-1,3-glucan) as substrate. Crude homogenates of the seedlings from treated seeds yielded the data in FIG. 1. Increased β-1,3-glucanase activity compared to controls (without seed treatment) was obtained in the micronutrient of the present invention treatments ten days following germination. Elicitation of mung beans seeds that were treated with the micronutrient of the present invention were compared to those treated with two types of elicitors. First, various concentrations of purified colloidal chitin/chitosan were used. […] Secondly, lower concentrations of the chitin oligosaccharide containing six glycan moieties, N-acetylchitohexaose were studied. The importance of the chitin oligosaccharide is that short chains of chitin have been found optimal in elicitation of many types of plants. […] Comparisons similar to those with chitin/chitosan could be made between the performance of 1 mg/seed micronutrient of the present invention and lower concentrations of the more optimal oligosaccharide.
# [2] = format: physicochemical
# Source text: Chitin/chitosan occurs naturally in a range from 100% chitin to 100% chitosan as a mixed polymer. […] Below is data showing that the micronutrient of the present invention outperforms chitin/chitosan as an elicitor of self-protecting enzymes.
"dose response relationship of β-1,3-glucanase specific activity [1]",water solubility [2],Molecule
negative,,CC(=O)N[C@H]1[C@H](O[C@H]2[C@H](O)[C@@H](NC(C)=O)[C@H](O[C@H]3[C@H](O)[C@@H](NC(C)=O)C(O)O[C@@H]3CO)O[C@@H]2CO)O[C@H](CO)[C@@H](O[C@@H]2O[C@H](CO)[C@@H](O[C@@H]3O[C@H](CO)[C@@H](O[C@@H]4O[C@H](CO)[C@@H](O)[C@H](O)[C@H]4NC(C)=O)[C@H](O)[C@H]3NC(C)=O)[C@H](O)[C@H]2NC(C)=O)[C@@H]1O (some centres unmarked) [N-acetylchitohexaose]
,not water soluble,chitin/chitosan
